In patent US12558428B2, “Heterobifunctional compounds and their use in treating disease” (Halda Therapeutics OpCo, Inc., priority 2024, dated 2026):

Columns and labels:
Type in all cases: cell-based
[1] = tested on: T-Rex 293 cells lacking increased expression of estrogen receptor alpha protein; experiment: Cellular growth inhibition assay, T-Rex 293 cells, (−) doxycycline; settings: T-REx-293, 72 h, Table 7-A; T-Rex 293 cells without doxycycline (lacking increased ERα expression); 72 hours; CellTiter-Glo; read-out: (−) Dox GI50
Method in brief: (§1)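 Cells of an inducible ERα-expressing T-Rex 293 clone are seeded in charcoal-dextran FBS medium with or without 3 ng/mL doxycycline, then treated after 24 h with compound dilutions (0.5% DMSO) for 72 h. Growth inhibition is measured by CellTiter-Glo luminescence and expressed as GI50.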

[2] = tested on: T-Rex 293 cells having increased expression of estrogen receptor alpha protein; experiment: Cellular growth inhibition assay, T-Rex 293 cells, (+) doxycycline; settings: T-REx-293, 72 h, Table 7-A; T-Rex 293 cells with doxycycline (increased ERα expression); 72 hours; CellTiter-Glo; read-out: (+) Dox GI50
Method in brief: as §1

[3] = tested on: MCF7 cells (ATCC #HTB-22); experiment: Cellular growth inhibition assay, MCF7 cells purchased from ATCC; settings: Homo sapiens, MCF7, 144 h, Table 8-A; MCF7 cells purchased from ATCC; six days; CellTiter-Glo; read-out: GI50
Method in brief: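 GI50 values come from a four-parameter fit of CellTiter-Glo 2.0 luminescence after six days of compound exposure at 37° C. Seeding density depended on the source: 225 cells/well for ECACC MCF7, 1,500 for ATCC. Medium was RPMI 1640 with 10% FBS and 0.2 U/ml insulin.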

| SMILES | GI50 [3] [nM] | GI50 [1] [nM] | GI50 [2] [nM] |
| --- | --- | --- | --- |
| Cc1sc2c(c1C)C(c1ccc(N3CCC(F)(CN4CCN(c5ccc(C6=C(c7ccc(Cl)cc7Cl)CCCc7cc(C(=O)O)ccc76)cc5)CC4)CC3)cc1)=N[C@@H](C)c1nnc(C)n1-2 [IV-27] | 50 to 500 | 500 to 2500 | 50 to 500 |
| Cc1sc2c(c1C)C(c1ccc(N3CCC(O)(CN4CCN(c5ccc(C6=C(c7ccc(Cl)cc7Cl)CCCc7cc(C(=O)O)ccc76)cc5)CC4)CC3)cc1)=N[C@H](Cc1ncco1)c1nnc(C)n1-2 [IV-30] | 50 to 500 | 500 to 2500 | 500 to 2500 |
| Cc1sc2c(c1C)C(c1ccc(C3CN(C[C@H]4CC[C@H](CN5CC(c6ccc(C7=C(c8ccccc8)CCCc8cc(C(=O)O)ccc87)cc6)C5)CC4)C3)cc1)=N[C@@H](C)c1nnc(C)n1-2 [IV-32] | 50 to 500 | 50 to 500 | < 50 |
| Cc1sc2c(c1C)C(c1ccc(N3CCC(CN4CCN(c5ccc(C6=C(c7ccccc7)CCCc7cc(O)ccc76)cc5)CC4)CC3)cc1)=N[C@@H](C)c1nnc(C)n1-2 [IV-39] | 50 to 500 | > 2500 | < 50 |
| Cc1sc2c(c1C)C(c1ccc(N3CC(O)(CN4CCN(CC5CN(c6ccc(C7=C(c8ccccc8)CCCc8cc(C(=O)O)ccc87)cc6)C5)CC4)C3)cc1)=N[C@@H](C)c1nnc(C)n1-2 [IV-45] | < 50 | < 50 | < 50 |
| Cc1sc2c(c1C)C(c1ccc(C3CN(CC4(O)CCN(CC5CN(c6ccc(C7=C(c8ccccc8)CCCc8cc(C(=O)O)ccc87)cc6)C5)CC4)C3)cc1)=N[C@@H](C)c1nnc(C)n1-2 [IV-46] | 50 to 500 | 500 to 2500 | < 50 |
| Cc1sc2c(c1C)C(c1ccc(N3CC4(CCC(CN5CCC(c6ccc(C7=C(c8ccccc8)CCCc8cc(O)ccc87)cc6)CC5)CC4)C3)cc1)=N[C@@H](C)c1nnc(C)n1-2 [IV-47] | < 50 | 500 to 2500 | < 50 |
| Cc1sc2c(c1C)C(c1ccc(N3CCC(CN4CCN(c5ccc(C6=C(c7ccccc7Cl)CCCc7cc(C(=O)O)ccc76)c(F)c5)CC4)CC3)cc1)=N[C@@H](C)c1nnc(C)n1-2 [IV-48] | < 50 | 500 to 2500 | < 50 |
| Cc1sc2c(c1C)C(c1ccc(N3CCC(CN4CCN(c5ccc(C6=C(c7ccccc7Cl)CCCc7cc(C(=O)O)ccc76)c(F)c5)CC4)CC3)cc1)=N[C@@H](Cc1ncco1)c1nnc(C)n1-2 [IV-49] | < 50 | 500 to 2500 | < 50 |
| Cc1sc2c(c1C)C(c1ccc(N3CC4(CC(CN5CCN(c6ccc(C7=C(c8ccccc8)CCCc8cc(O)ccc87)cc6)CC5)C4)C3)cc1)=N[C@@H](C)c1nnc(C)n1-2 [IV-50] | < 50 | 500 to 2500 | < 50 |
| Cc1sc2c(c1C)C(c1ccc(N3CCC(O)(CN4CCN(c5ccc(C6=C(c7cccc(Cl)c7)CCCc7cc(C(=O)O)ccc76)cc5)CC4)CC3)cc1)=N[C@@H](C)c1nnc(C)n1-2 [IV-51] | < 50 | 500 to 2500 | < 50 |
| Cc1sc2c(c1C)C(c1ccc(N3CCC(O)(CN4CCN(c5ccc(C6=C(c7ccc(Cl)c(Cl)c7)CCCc7cc(C(=O)O)ccc76)cc5)CC4)CC3)cc1)=N[C@@H](C)c1nnc(C)n1-2 [IV-52] | 50 to 500 | 500 to 2500 | 50 to 500 |
| Cc1sc2c(c1C)C(c1ccc(N3CCC(O)(CN4CCN(c5ccc(C6=C(c7cccc(Cl)c7Cl)CCCc7cc(C(=O)O)ccc76)cc5)CC4)CC3)cc1)=N[C@@H](C)c1nnc(C)n1-2 [IV-53] | < 50 | 500 to 2500 | < 50 |
| Cc1sc2c(c1C)C(c1ccc(N3CC(CN4CCN(CC5CN(c6ccc(C7=C(c8ccccc8Cl)CCCc8cc(C(=O)O)ccc87)cc6)C5)CC4)C3)cc1)=N[C@@H](C)c1nnc(C)n1-2 [IV-54] | < 50 | 50 to 500 | < 50 |
| COc1ccc(-c2sc3cc(OC)ccc3c2C(=O)c2ccc(OCCN3CCC4(CC3)CC(Oc3ccc(C5=N[C@@H](Cc6ncco6)c6nnc(C)n6-c6sc(C)c(C)c65)cc3)C4)cc2)cc1 [IV-55] | < 50 | 500 to 2500 | < 50 |
| Cc1sc2c(c1C)C(c1ccc(N3CC4(CCC(CN5CCC(c6ccc(C7=C(c8ccccc8Cl)CCCc8cc(C(=O)O)ccc87)cc6)CC5)CC4)C3)cc1)=N[C@@H](C)c1nnc(C)n1-2 [IV-56] | < 50 | 50 to 500 | < 50 |
| Cc1sc2c(c1C)C(c1ccc(N3CCC(O)(CN4CCN(c5ccc(C6=C(c7ccc(Cl)cc7)CCCc7cc(C(=O)O)ccc76)cc5)CC4)CC3)cc1)=N[C@@H](C)c1nnc(C)n1-2 [IV-57] | < 50 | 500 to 2500 | < 50 |

Further lines, with some results ahead:

| GI50 [3] [nM] | SMILES | GI50 [1] [nM] | GI50 [2] [nM] |
| --- | --- | --- | --- |
| < 50 | Cc1sc2c(c1C)C(c1ccc(N3CC(C[C@H]4CC[C@H](CN5CC(c6ccc(C7=C(c8ccccc8)CCCc8cc(C(=O)O)ccc87)cc6)C5)CC4)C3)cc1)=N[C@@H](C)c1nnc(C)n1-2 [IV-24] | 500 to 2500 | < 50 |
| < 50 | Cc1sc2c(c1C)C(c1ccc(N3CC(CN4CCN(CC5CN(c6ccc(C7=C(c8ccc(F)cc8F)CCCc8cc(C(=O)O)ccc87)cc6)C5)CC4)C3)cc1)=N[C@@H](C)c1nnc(C)n1-2 [IV-25] | 50 to 500 | < 50 |
| < 50 | Cc1sc2c(c1C)C(c1ccc(N3CCC(O)(CN4CCN(c5ccc(C6=C(c7ccc(F)cc7F)CCCc7cc(C(=O)O)ccc76)cc5)CC4)CC3)cc1)=N[C@@H](C)c1nnc(C)n1-2 [IV-26] | 500 to 2500 | < 50 |
| < 50 | Cc1sc2c(c1C)C(c1ccc(N3CCC(O)(CN4CCN(c5ccc(C6=C(c7ccccc7)CCCc7cc(C(=O)O)ccc76)c(F)c5)CC4)CC3)cc1)=N[C@@H](C)c1nnc(C)n1-2 [IV-28] | 500 to 2500 | < 50 |
| < 50 | Cc1sc2c(c1C)C(c1ccc(N3CC(CC4(O)CCN(CC5CN(c6ccc(C7=C(c8ccccc8)CCCc8cc(C(=O)O)ccc87)cc6)C5)CC4)C3)cc1)=N[C@@H](C)c1nnc(C)n1-2 [IV-29] | 50 to 500 | < 50 |
| < 50 | Cc1sc2c(c1C)C(c1ccc(N3CCC(O)(CN4CCN(c5ccc(C6=C(c7ccc(Cl)cc7Cl)CCCc7cc(C(=O)O)ccc76)cc5)CC4)CC3)cc1)=N[C@@H](Cc1ncco1)c1nnc(C)n1-2 [IV-31] | 50 to 500 | < 50 |
| < 50 | Cc1sc2c(c1C)C(c1ccc(N3CCC(O)(CN4CCN(c5ccc(C6=C(c7ccccc7)CCCc7cc(C(=O)O)ccc76)cc5F)CC4)CC3)cc1)=N[C@@H](C)c1nnc(C)n1-2 [IV-33] | 500 to 2500 | < 50 |
| < 50 | Cc1sc2c(c1C)C(c1ccc(N3CCC(O)(CN4CCN(c5ccc(C6=C(c7ccccc7Cl)CCCc7cc(C(=O)O)ccc76)c(F)c5)CC4)CC3)cc1)=N[C@@H](C)c1nnc(C)n1-2 [IV-34] | 50 to 500 | < 50 |
| < 50 | Cc1sc2c(c1C)C(c1ccc(N3CCC(O)(CN4CCN(c5ccc(C6=C(c7ccccc7Cl)CCCc7cc(C(=O)O)ccc76)cc5F)CC4)CC3)cc1)=N[C@@H](C)c1nnc(C)n1-2 [IV-35] | 500 to 2500 | < 50 |
| < 50 | Cc1sc2c(c1C)C(c1ccc(N3CC(CN4CC(CC5CN(c6ccc(C7=C(c8ccccc8)CCCc8cc(C(=O)O)ccc87)cc6)C5)C4)C3)cc1)=N[C@@H](C)c1nnc(C)n1-2 [IV-36] | 50 to 500 | < 50 |
| < 50 | Cc1sc2c(c1C)C(c1ccc(N3CCC(O)(CN4CCN(c5ccc(C6=C(c7ccc(F)cc7)CCCc7cc(C(=O)O)ccc76)cc5)CC4)CC3)cc1)=N[C@@H](C)c1nnc(C)n1-2 [IV-37] | 500 to 2500 | < 50 |
| < 50 | Cc1sc2c(c1C)C(c1ccc(N3CC(CN4CCN(CC5CN(c6ccc(C7=C(c8ccc(F)cc8)CCCc8cc(C(=O)O)ccc87)cc6)C5)CC4)C3)cc1)=N[C@@H](C)c1nnc(C)n1-2 [IV-38] | 500 to 2500 | < 50 |
| < 50 | Cc1sc2c(c1C)C(c1ccc(N3CCC(CN4CCN(c5ccc(C6=C(c7ccccc7Cl)CCCc7cc(O)ccc76)cc5)CC4)CC3)cc1)=N[C@@H](C)c1nnc(C)n1-2 [IV-40] | > 2500 | < 50 |
| < 50 | Cc1sc2c(c1C)C(c1ccc(N3CC4(CC(CN5CCC(c6ccc(C7=C(c8ccccc8)CCCc8cc(C(=O)O)ccc87)cc6)CC5)C4)C3)cc1)=N[C@@H](C)c1nnc(C)n1-2 [IV-41] | 50 to 500 | < 50 |
| < 50 | Cc1sc2c(c1C)C(c1ccc(N3CC(CC4(O)CN(CC5CN(c6ccc(C7=C(c8ccccc8)CCCc8cc(C(=O)O)ccc87)cc6)C5)C4)C3)cc1)=N[C@@H](C)c1nnc(C)n1-2 [IV-42] | 50 to 500 | < 50 |
| < 50 | Cc1sc2c(c1C)C(c1ccc(N3CC(O)(CC4CN(CC5CN(c6ccc(C7=C(c8ccccc8)CCCc8cc(C(=O)O)ccc87)cc6)C5)C4)C3)cc1)=N[C@@H](C)c1nnc(C)n1-2 [IV-43] | 50 to 500 | < 50 |
| < 50 | Cc1sc2c(c1C)C(c1ccc(N3CC4(CCC(CN5CCC(c6ccc(C7=C(c8ccccc8)CCCc8cc(C(=O)O)ccc87)cc6)CC5)CC4)C3)cc1)=N[C@@H](C)c1nnc(C)n1-2 [IV-44] | 500 to 2500 | < 50 |
